Substitutions are numbered along the chain they refer to. pIC50: −log10 of the molar value.
Assays:
[1] = tested on: Human prostate cancer cells LNCaP-FGC; assay: Inhibition of prostate-specific antigen (PSA) production in prostate cancer cells; format: cell-based; conditions: 72 h, testosterone 1 ng/ml, three days after addition, ELISA, read-out: IC50, PSA production in culture supernatant
Method: Human prostate cancer cells LNCaP-FGC were seeded in a 24-well plate at a concentration of 40,000 cells/ml/well or in a 96-well plate at a concentration of 5000 cells/100 μl/well. On the following day, testosterone (final concentration 1 ng/ml) and a compound (final concentration 0.01 to 10 μM) were added. Three days after the addition, the concentration of PSA in the supernatant of the culture solution was measured by ELISA, and IC50 was calculated.

[2] = target: T1, LNCaP type mutant androgen receptor (Homo sapiens, UniProt P10275, T878A); assay: AR-binding inhibition test (LNCaP type); conditions: radio labeled Mibolerone 3 nM; 4° C., 3 hours; dextran/charcoal method
T1 sequence (P10275 1-920 T878A): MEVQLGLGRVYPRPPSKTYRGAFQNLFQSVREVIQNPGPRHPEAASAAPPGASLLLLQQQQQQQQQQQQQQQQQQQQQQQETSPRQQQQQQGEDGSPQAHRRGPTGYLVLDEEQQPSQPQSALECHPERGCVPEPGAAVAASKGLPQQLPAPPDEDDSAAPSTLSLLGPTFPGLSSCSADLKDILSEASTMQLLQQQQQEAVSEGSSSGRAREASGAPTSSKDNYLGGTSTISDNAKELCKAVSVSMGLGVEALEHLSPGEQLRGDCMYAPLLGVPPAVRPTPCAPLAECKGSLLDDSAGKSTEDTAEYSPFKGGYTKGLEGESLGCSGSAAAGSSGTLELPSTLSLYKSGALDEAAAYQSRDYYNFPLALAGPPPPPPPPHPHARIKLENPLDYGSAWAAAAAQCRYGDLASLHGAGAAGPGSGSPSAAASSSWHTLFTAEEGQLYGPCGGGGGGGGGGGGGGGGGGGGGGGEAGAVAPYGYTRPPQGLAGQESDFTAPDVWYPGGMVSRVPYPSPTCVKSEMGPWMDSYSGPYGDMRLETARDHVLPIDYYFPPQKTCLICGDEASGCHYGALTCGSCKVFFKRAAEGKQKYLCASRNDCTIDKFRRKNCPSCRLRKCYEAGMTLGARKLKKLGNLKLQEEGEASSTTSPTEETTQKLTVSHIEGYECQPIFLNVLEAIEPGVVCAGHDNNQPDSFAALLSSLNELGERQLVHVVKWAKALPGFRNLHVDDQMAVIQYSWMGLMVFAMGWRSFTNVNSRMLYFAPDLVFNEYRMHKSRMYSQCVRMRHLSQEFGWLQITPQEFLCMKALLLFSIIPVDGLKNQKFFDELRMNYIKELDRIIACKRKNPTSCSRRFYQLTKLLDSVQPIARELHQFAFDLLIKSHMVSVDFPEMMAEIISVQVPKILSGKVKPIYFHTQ
Method: (§1) A solution of wild type or LNCaP type mutant androgen receptor, radio labeled Mibolerone (final concentration 3 nM) and a compound (final concentration 0.001 to 10 μM) were mixed. The mixture was incubated at 4° C. for 3 hours, and by the dextran/charcoal method, B (Bound) and F (Free) Mibolerone were separated. The radioactivity of B was measured and IC50 was calculated.

[3] = target: T2, wild type androgen receptor (Homo sapiens, UniProt P10275); assay: AR-binding inhibition test (wild type); conditions: radio labeled Mibolerone 3 nM; 4° C., 3 hours; dextran/charcoal method
T2 sequence (P10275 1-920): T1 sequence (P10275 1-920 T878A) with A878T
Method: as §1

[4] = target: T3, mutation type AR (W741C) (Homo sapiens, UniProt P10275, W742C); assay: AR transcription inhibition test (luciferase reporter); format: cell-based; conditions: Cos-7 cells; test compound 1 μM; DHT 0.04 μM; 24 hours; luciferase activity; read-out: Inhibition rate (%) relative to the control
T3 construct: expressed in transfected cells; host or cells: Cos-7
T3 sequence (P10275 1-920 W742C): T1 sequence (P10275 1-920 T878A) with W742C, A878T
Method: Cos-7 cells were inoculated in a flask at 5,000,000 cells, and incubated in a culture solution (DMEM+10% Dextran Charcoal (DCC)-Fetal Bovine Serum (FBS) +2 mM glutamine) for 24 hours. A vector DNA in which a mutation type AR (W741C) gene was inserted and a vector DNA combined with luciferase gene downstream of the androgen responsive promoter were cotransfected by the liposome method. Two hours later, the culture medium was replaced and incubation was further carried out for 3 hours. DHT (Dihydrotestosterone) at a final concentration 0.04 μM and a test compound at a final concentration of 1 μM were added, and incubation was further carried out for 24 hours. By measuring luciferase activity, AR transcription inhibitory activity of the test compound was examined.

| pIC50 [1] | pIC50 [2] | pIC50 [3] | inhibition at 1 µM [4] [%] | SMILES |
| --- | --- | --- | --- | --- |
| 6.08 |  |  |  | CC(O)(CS(=O)(=O)c1ccc(F)cc1)C(=O)Nc1ccc(C#N)c(C(F)(F)F)c1 (stereo not shown) [Bicalutamide, bicalutamide, reference compound] |
| 6.41 | 6.70 | 6.72 | 64.3 | CCOC(=O)c1c(C)[nH]c(C)c1-c1ccc([N+](=O)[O-])cc1 [Example 1, Ethyl 2,5-dimethyl-4-(4-nitrophenyl)-1H-pyrrole-3-carboxylate] |
| 7.06 | 8.12 | 8.11 | 20.1 | CCOC(=O)c1c(-c2ccc([N+](=O)[O-])cc2)c(C)n(Cc2ccccc2)c1C [Example 4, Ethyl 1-benzyl-2,5-dimethyl-4-(4-nitrophenyl)-1H-pyrrole-3-carboxylate] |
| 7.47 | 7.17 | 7.40 | 80.1 | COC(=O)c1c(-c2ccc(C#N)cc2)c(C)n(Cc2ccc(C#N)cc2)c1C [Example 80, Methyl 1-(4-cyanobenzyl)-4-(4-cyanophenyl)-2,5-dimethyl-1H-pyrrole-3-carboxylate] |

Reference: US20050101657A1, “Androgen receptor antagonists” (Takeda Chemical Industries Ltd., priority 2001, published 2005)
